In US20220257633A1, “METHOD OF TREATING AGE-RELATED MACULAR DEGENERATION” (THE PROVOST, FELLOWS, FOUNDATION SCHOLARS, & THE O, priority 2021, published 2022):

Test system: CD45+CD66b−CD14+CD16+ monocytes
Assay: Surface CD86 on monocytes by flow cytometry
Assay type: cell-based, human
Conditions: PBMCs treated with MCP-1 for 24 h; CD86 MFI
Procedure: PBMCs were labelled for the investigation of monocytes with the following fluorochrome-labelled antibodies: anti-CD16 (3G8) anti-CD86 (FM95) anti-CD45 (2D1); anti-CD66b (G10F5); CD14 (Tuk4); CD80 (2D10); (Biolegend or Miltenyi). Each staining well contained 4×10^5 cells; cells were stained with LIVE/DEAD Aqua (Molecular Probes) followed by staining for 20 min on ice, washed, and analyzed by flow cytometry immediately. Flow cytometry was carried out on a BD LSR Fortessa cell analyzer and analyzed using FlowJo software (Tree Star).

MCP-1: chemokine monocyte chemoattractant protein CCL2/MCP-1
increase of CD86 membrane expression: ~1.4 fold
